Where two headings read alike, the source gives them in different places.
Experiments:
in vivo [1] = settings: mouse, ip
Protocol: (§1) The acute toxicity detenninatioii (LD50) for compounds of formula 1 was performed. Compounds were given intraperitoneally (i.p.) in doses ranging from 0.1-5 mmol/kg. […] All behavioral changes and death during the observation periods were recorded. […] The protective index (PI) and therapeutic index (TI) of each compound were calculated.
(§2) Initially the approximate LD50 of each test compound was determined. Albino Swiss mice (25 g body weight) were then divided into 4 groups (6 mice each). […] The animals were then observed closely for 4 hours and then occasionally for 72 hours. The percentage of death in each group was then calculated.

in vivo [2] = settings: mouse, ip; remark: listed apart in the source
Protocol: (§3) Median effective (ED50), and median sedative (TD50) were calculated.

Albino Swiss mice [3] = experiment: Acute toxicity determination (LD50); settings: Therapeutic index = LD50/ED50
Protocol: as §1, §2

[4] = tested on: Pentylenetetrazole (PTZ)-induced convulsion; experiment: Pentylenetetrazole (PTZ) seizure threshold test; type: in vivo, Swiss albino mice; settings: for ED50: Mus musculus, ip, median effective dose, mice, log-probit method; for % Protection: PTZ 100 mg/kg i.p. 30 min later, 4 animals; for protection against PTZ-induced seizures: dose not given (tested 25, 50, 100 and 200 mg/kg i.p.)
Protocol: Adult male Swiss […] mice (22-28 g), approximately 10-week old, were used to conduct the anticonvulsant evaluation. They were housed in cages and kept at a temperature of 20 ± 2°C and a relative humidity of 55 ± 5% with a light-dark cycle of 12 h and fed with standard diet and water ad libitum. […] A control group of mice was included and received intraperitoneal (i.p.) injections of the test compounds' vehicle. […] Picrotoxin (pic) was freshly dissolved in 1 ml 0.1N warmed HCl and the final volume was made up with 0.9% NaCl.
A single 5 seconds episode of clonic spasms was taken as a threshold seizure.
In each of the chemical and the electrical methods described above, Swiss albino mice were divided into 4 groups (N = 4 animals).

motor performance = experiment: Minimal neurotoxicity (chimney test), motor performance; settings: Protective index = TD50/ED50
Protocol: as §3

Albino Swiss mice [5] = settings: mouse, in vivo, 72 h
Protocol: as §1, §2

CC(=O)NNC(=O)CSc1nc2ccc(Cl)cc2c(=O)n1Cc1ccccc1 [Compound 105, N'-Acetyl-2-(3-benzyl-6-chloro-4-oxo-3,4-dihydro-quinazolin-2-yl-thio)acetohydrazide]
LD50 at 72 h (in vivo [1]; Albino Swiss): 240 mg/kg
TD50 (in vivo [2]): 215 mg/kg
TI (Albino Swiss mice [3]): 9.7
ED50 [4]: 24.8 mg/kg
% Protection ([4]; dose 150 mg/Kg i.p.): 100%
protection against PTZ-induced seizures [4]: 100%
PI (motor performance): 8.7

COc1cc2nc(SCC(=O)NN)n(Cc3ccccc3)c(=O)c2cc1OC [Compound 70, 2-(3-Benzyl-6,7-dimethoxy-4-oxo-3,4-dihydro-quinazolin-2-yl-thio)acetohydrazide]
LD50 at 72 h (in vivo [1]; Albino Swiss): 360 mg/kg
TD50 (in vivo [2]): 149 mg/kg
TI (Albino Swiss mice [3]): 11.25
ED50 [4]: 32 mg/kg
% Protection ([4]; dose 50 mg/Kg i.p. [sic]): 100%
protection against PTZ-induced seizures [4]: 100%
PI (motor performance): 4.67

CCC(=O)NNC(=O)CSc1nc2ccc(Cl)cc2c(=O)n1-c1ccccc1 [Compound 89, N'-[2-(6-Chloro-4-oxo-3-phenyl-3,4-dihydro-quinazolin-2yl-thio)acetyl]propionohydrazide]
LD50 at 72 h (in vivo [1]; Albino Swiss): 290 mg/kg
TD50 (in vivo [2]): 100 mg/kg
TI (Albino Swiss mice [3]): 24.6
ED50 [4]: 11.8 mg/kg
% Protection ([4]; dose 50 mg/Kg i.p. [sic]): 100%
protection against PTZ-induced seizures [4]: 100%
PI (motor performance): 8.5

O=C(CCc1ccccc1)NNC(=O)CSc1nc2ccc(Cl)cc2c(=O)n1Cc1ccccc1 [Compound 115, N'-(2-(3-Benzyl-6-chloro-4-oxo-3,4-dihydro-quinazolin-2-yl-thio)acetyl)-3-phenylpropanehydrazide]
LD50 at 72 h (in vivo [1]; Albino Swiss): 290 mg/kg
TD50 (in vivo [2]): 136 mg/kg
TI (Albino Swiss mice [3]): 9.8
ED50 [4]: 29.5 mg/kg
% Protection ([4]; dose 150 mg/Kg i.p.): 100%
protection against PTZ-induced seizures [4]: 100%
PI (motor performance): 4.6

CCCC(CCC)C(=O)[O-].[Na+] [Sodium Valproate, Sodium valproate, reference compound]
LD50 at 72 h (in vivo [1]): 985 mg/kg
TD50 (in vivo [2]): 470 mg/kg
ED50 [4]: 189 mg/kg
% Protection ([4]; dose 50 mg/Kg i.p. [sic]): 100%
TI (Albino Swiss mice [5]): 5.2

CCC(=O)NNC(=O)CSc1nc2cc(OC)c(OC)cc2c(=O)n1Cc1ccccc1 [Compound 110, N'-(2-(3-Benzyl-6,7-dimethoxy-4-oxo-3,4-dihydro-quinazolin-2-yl-thio)acetyl)propionohydrazide]
LD50 at 72 h (in vivo [1]; Albino Swiss): 168 mg/kg
TD50 (in vivo [2]): 134 mg/kg
TI (Albino Swiss mice [3]): 5.1
ED50 [4]: 32.7 mg/kg
% Protection ([4]; dose 150 mg/Kg i.p.): 100%
protection against PTZ-induced seizures [4]: 100%
PI (motor performance): 4.1
